Data: article PMC6748986, “Potent modulation of the CepR quorum sensing receptor and virulence in a Burkholderia cepacia complex member using non-native lactone ligands” (Scientific Reports, 2019)
Residue numbers refer to the chain shown, from its start. Where “and” joins values, the source holds several entries; their conditions need not be identical. Equal entries are not always repeated.

Key:
CepR [1] = biological target: T1, CepR (Burkholderia cenocepacia, UniProt B4EMD0); assay: CepR agonism in E. coli β-galactosidase reporter (Ec-reporter) JLD271 [pJN105-cepR + pSC11-cepI]; type: cell-based, B. cenocepacia; details: for Maximal Activation (%): activity for 100 μM C8-AHL set to 100%, error ±10%
T1 sequence (B4EMD0 1-239): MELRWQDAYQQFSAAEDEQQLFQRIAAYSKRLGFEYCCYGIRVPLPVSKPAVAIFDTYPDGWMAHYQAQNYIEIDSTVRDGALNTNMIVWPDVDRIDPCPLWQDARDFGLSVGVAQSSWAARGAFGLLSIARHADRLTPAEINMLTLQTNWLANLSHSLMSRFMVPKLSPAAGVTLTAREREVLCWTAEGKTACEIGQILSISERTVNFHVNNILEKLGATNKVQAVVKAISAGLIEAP
Description: (§1) We began our study by screening the AHL library for CepR modulators using an E. coli-based two plasmid reporter system (Ec-reporter)[38]–[40]. Certain members of the Bcc harbor additional QS systems that are either AHL-based (e.g., BviI/BviR in B. vietnamiensis)[41] or diffusible signal factor (DSF)-based (B. cenocepacia)[42], and at least one member of the Bcc has multiple receptors that respond to C8-AHL (e.g., CepR and CepR2 in B. cenocepacia)[43]. Thus, we reasoned that using a CepR reporter in a heterologous background could simplify our initial analyses. We modified our previously reported E. coli-based two plasmid β-galactosidase reporter system to develop a CepR Ec-reporter (see Methods). The first plasmid, pJN105-cepR, contains CepR from B. cenocepacia under the control of the L-arabinose inducible pBAD promoter. A second plasmid contains a transcriptional fusion of lacZ to the cepI promoter region. The two plasmids were co-transformed into a QS mutant E. coli strain (JLD271 ∆sdiA) that lacks its LuxR-type receptor, SdiA. Using this reporter system, if an exogenously -added compound is able to interact with CepR, this will affect the protein’s interaction with the cepI promoter region and alter β-galactosidase production. Enzyme production, and thereby CepR activity, is then measurable via the degradation of a colorimetric substrate for β-galactosidase. Using this new Ec-reporter, we observed robust activity of CepR in response to its native ligand C8-AHL, with an EC50 of 5 nM (Table 1).
We used the CepR Ec-reporter to perform a primary agonism screen at a single compound concentration (100 μM, or its solubility limit, indicated in Table S1). Thirty-one compounds displaying ≥70% agonistic activity in CepR (relative to C8-AHL) were identified and subjected to dose-response analyses using the Ec-reporter (Table I; see Table S2 for complete screening data and Fig. S3 for dose-response curves).
(§2) E. coli β-galactosidase reporter assays (derived from ref.[63]) and reagents used to obtain primary screening and dose-response data were performed as previously described[22],[60],[64], with the following modifications: E. coli JLD271 (∆sdiA) was co-transformed iteratively with pSC11-cepI and pJN105-cepR via electroporation. A single colony was used to start overnight cultures in LB medium + ampicillin (100 μg/mL) + gentamicin (15 μg/mL). A 1:10 dilution of overnight culture was grown in fresh medium to OD600 = 0.25. A sterile solution of L-arabinose in water (27 mM final concentration) was added to induce protein expression, after which cells were plated in 96-well plates containing varying concentrations of compound (200 μL total volume).
(§3) Cells were grown for 4 h, OD600 was read, 50 μL aliquots from each well were permeabilized in 200 μL Z Buffer, and then 150 μL of this mixture used to measure the cleavage of 25 μL of 4 mg/mL CPRG in phosphate buffered saline (PBS) at 37 °C until positive control wells developed a deep red color (~30 min). For all agonism assays, synthetic compound (100 μM) was screened alongside and compared to the native ligand, C8-AHL (100 μM). For all primary and dose-response antagonism assays, the concentration of native ligand utilized was 10 nM (approximately equal to twice its EC50 value). […] At least 3 separate trials were performed using unique cultures on separate days.

CepR [2] = biological target: T1, CepR; assay: CepR antagonism in E. coli β-galactosidase reporter (Ec-reporter), competition against C8-AHL; type: cell-based, B. cenocepacia; details: Table S3, Ec-reporter
Description: as §1
To identify antagonists of CepR, we screened the AHL library (at 100 μM) in competition against the native ligand C8-AHL (at approximately twice its EC50 value, 0.01 μM) in the Ec-reporter. […] The active compounds were subjected to dose-response analyses in the Ec-reporter to obtain IC50 values and assess their relative potencies (Table 2; see Table S3 for complete screening data and Fig. S3 for dose-response curves). One general trend that we noted at the outset was the majority of the antagonists had acyl tails of similar or shorter overall length than CepR’s native ligand, C8-AHL. From this set, the strongest antagonists could be divided into two classes: (i) “short alkyl tail” AHLs or analogs thereof, and (ii) phenylacetanoyl HLs (PHLs). The discovery that the latter compounds were CepR antagonists was perhaps not surprising, as we have found substituted PHLs to strongly antagonize the majority of the LuxR-type receptors studied in our laboratory to date[22],[24],[29],[45],[46].
as §2, §3

CepR [3] = biological target: T2, CepR (Burkholderia multivorans, UniProt Q93PF7); assay: CepR agonism in B. multivorans cepI::lacZ reporter (Bm-reporter); type: cell-based; details: for EC50 / Maximal Activation (%): Bm-reporter; for EC50: agonism dose-response, read-out: EC50; for Maximal Activation (%): activity for 100 μM C8-AHL set to 100%, error ±10%; for Act%: Table S4, Bm-reporter, screening conc. 100 μM
T2 sequence (Q93PF7 1-239): T1 sequence (B4EMD0 1-239) with W5R, A51S, Q69H, N84S, R95Q, D97A
Description: We next sought to assess if the CepR modulators identified in the Ec-reporter maintained their activities in a member of the Bcc. For these studies, we generated a B. multivorans cepI::lacZ reporter organism (Bm-reporter) using standard allelic exchange methods (see Methods). Along with B. cenocepacia, B. multivorans is one of the most commonly isolated Bcc members[6],[44]. We note that small molecules must contend with a different cellular environment in the native organism relative to E. coli[48]; however, as both CepR and the cepI promoter are highly conserved among Bcc species (Fig. S3), we reasoned that the majority of compounds identified in the Ec-reporter (containing B. cenocepacia versions of the cepI promoter and the cepR gene) would maintain their relative activity profiles in CepR in B. multivorans. […] Similar to the Ec-reporter, CepR binding to the cepI promoter then induces β-galactosidase production, allowing for the quantitation of CepR activity. Using the Bm-reporter organism, we observed robust activity for CepR in response to C8-AHL (EC50 = 0.7 nM, Table 3).
The B. multivorans cepI::lacZ strain was used to obtain dose-response data for CepR in response to synthetic AHLs. Overnight cultures of B. multivorans cepI::lacZ were grown in LB medium at 37 °C with shaking (225 rpm). Aliquots (200 μL) of a 1:10 dilution of this overnight culture were plated into 96-well plates containing varying concentrations of compound, and then grown for 4 h at 37 °C with shaking (225 rpm). β-galactosidase production was measured as described above for E. coli, with the following changes: permeabilized cells were incubated at 25 °C with substrate CPRG for ~10 min until positive control wells developed a deep red color. For agonism assays, synthetic compound was screened alongside and compared to the native ligand, C8-AHL (100 μM). For antagonism assays, the concentration of native ligand utilized was 5 nM (approximately equal to twice its EC50 value).

[4] = Ec-reporter, agonism dose-response
[5] = Table S2, Ec-reporter, screening conc. 100 μM
[6] = screening conc. 100 μM, against 10 nM C8-AHL

SMILES | Act% (CepR [1]; [5]) [%] | Inh% (100-Act%) (CepR [2]; [6]) [%] | also measured
O=C(CCc1ccc(Cl)cc1)N[C@H]1CCOC1=O [Compound E30] | 85 | -10 | EC50 (CepR [1]; [4]): 4.4 nM; Maximal Activation (%) (CepR [1]; Ec-reporter): 85%; EC50 (CepR [3]): 0.75 nM; Maximal Activation (%) (CepR [3]): 84%; Act% (CepR [3]): 84%
CC(C)Oc1ccc(C(=O)N[C@H]2CCOC2=O)cc1 [Compound R3] | 92 | -10 | EC50 (CepR [1]; Table S2, Ec-reporter): 94 nM; Act% (CepR [3]): 40%
O=C(CCC1CCCCC1)N[C@H]1CCOC1=O [Compound B11] | 87 | -20 | EC50 (CepR [1]; [4]): 130 nM; Maximal Activation (%) (CepR [1]; Ec-reporter): 87%; Act% (CepR [3]): 51%
CSc1ccc(CCC(=O)N[C@H]2CCOC2=O)cc1 [Compound E34] | 104 | -20 | Fold more potent than C8-AHL (CepR [1]; Ec-reporter, EC50 comparison): ~100 fold; EC50 (CepR [1]; [4]): 0.07 nM and 0.071 nM; Maximal Activation (%) (CepR [1]; Ec-reporter): 104% and 100%; EC50 (CepR [3]): 0.94 nM; Maximal Activation (%) (CepR [3]): 110%; Act% (CepR [3]): 110%
O=C(CCc1cccc(Br)c1)N[C@H]1CCOC1=O [Compound E31] | 89 | -20 | EC50 (CepR [1]; [4]): 4.4 nM; Maximal Activation (%) (CepR [1]; Ec-reporter): 89%; EC50 (CepR [3]): ≥ 3400 nM; Maximal Activation (%) (CepR [3]): 78%; Act% (CepR [3]): 78%
CCCC(=O)CC(=O)NC1CCSC1=O (stereo not shown) [3’O-C6-TL] | 1.6 | 4.0 | –
CCCCCCCCCC(O)CC(=O)N[C@H]1CCOC1=O (stereo partly shown) [3’OH-C12-AHL, reference compound] | 52 | 0.0 | –
CCCCCCCCCC(=O)CC(=O)NC1CCCCC1=O (stereo not shown) [Control 15, reference compound] | 5.2 | 29 | –
CCCCCCCCCCCC(=O)N[C@H]1CCOC1=O [Compound C12-AHL, Dodecanoyl L-homoserine lactone, reference compound] | 98 | -30 | EC50 (CepR [1]; [4]): 310 nM; Maximal Activation (%) (CepR [1]; Ec-reporter): 98%
CC(C)(C)OC(=O)Nc1ccc(CC(=O)N[C@H]2CCOC2=O)cc1 [Compound C22] | 1.1 | -70 | –
CCCCCCCCCCCCCC(O)CC(=O)NC1CCOC1=O (stereo not shown) [3’OH-C16-AHL, reference compound] | 8.0 | -50 | –
O=C(N[C@H]1CCOC1=O)c1ccc(N=Nc2ccccc2)cc1 [Compound D20] | – | – | Act% (CepR [1]; Table S2, Ec-reporter, screening conc. 77 μM): 37%; Inh% (100-Act%) (CepR [2]; screening conc. 77 μM): 8.0%
O=C(COc1ccc([N+](=O)[O-])cc1)N[C@H]1CCOC1=O [Compound E24] | 75 | -10 | –
CCCCCCCCCCCCCC(=O)CC(=O)NC1CCOC1=O (stereo not shown) [3’O-C16-AHL, reference compound] | 8.3 | -50 | –
O=C(C=Cc1ccccc1)NC1CCOC1=O (stereo not shown) [Compound B10] | 60 | 11 | –
O=C(N[C@H]1CCOC1=O)c1cccc(Br)c1 [Compound Q2] | 4.9 | -30 | –
[N-]=[N+]=Nc1ccc(CC(=O)N[C@H]2CCOC2=O)cc1 [Compound C17] | 1.0 | 26 | –
O=C(N[C@H]1CCOC1=O)c1ccc(Oc2ccc(Br)cc2)cc1 [Compound Q10] | 64 | -40 | –
Cc1ccc(OCC(=O)N[C@H]2CCOC2=O)cc1 [Compound E15] | 65 | -30 | –
O=C(NCc1cc(Br)cc(Br)c1OC(=O)c1ccccc1[N+](=O)[O-])c1ccccc1Cl [TP-1P, reference compound] | 54 | 0.0 | –
O=C(Cc1ccc(O)cc1)N[C@H]1CCOC1=O [Compound C23] | -0.5 | -10 | –
O=C(CC(=O)N[C@H]1CCOC1=O)Cc1cccc(Cl)c1 [Compound H23] | 53 | -20 | –
CC(C)(C)OC(=O)c1ccc(C(=O)N[C@H]2CCOC2=O)cc1 [Compound Q13] | 6.8 | 11 | –
CCCCCCCCCCCCn1nnc(CC(=O)O)n1 [PD-12, reference compound] | -7.6 | -40 | –
O=C(CCCc1ccccc1)N[C@@H]1CCOC1=O [Compound B3] | -0.4 | -30 | –
O=C(N[C@H]1CCOC1=O)C1CCC(c2ccc(Cl)cc2)CC1 (stereo partly shown) [Compound D14] | – | – | Act% (CepR [1]; Table S2, Ec-reporter, screening conc. 40 μM): 54%; Inh% (100-Act%) (CepR [2]; screening conc. 40 μM): -20%
CCCCCCCCc1ccc(C(=O)N[C@H]2CCOC2=O)cc1 [Compound D13] | 4.2 | 38 | –
Cc1ccc(C(=O)N[C@H]2CCOC2=O)cc1 [Compound Q8] | 19 | -20 | –
